Assay results from patent US6855712B2, “Combination of benzoquinazoline antifolates and protecting agents” (SmithKline Beecham Corporation, priority 1992, dated 2005).

How the values were obtained:
human tumor GC3TK = test: Mouse antitumor: human tumor GC3TK in the subrenal capsule of nude mice, Compound A ip bolus for five days; format: in vivo
beagle dogs = test: Dog toxicity of Compound A given as iv bolus for five consecutive days, with or without oral folic acid or leucovorin; format: in vivo

Cc1nc2ccc3ccc(CNc4ccc5c(c4)CN([C@@H](CCC(=O)O)C(=O)O)C5=O)cc3c2c(=O)[nH]1 [Compound A, (S)-2-(5-(((1,2-Dihydro-3-methyl-1-oxobenzo[f]quinazolin-9-yl)methyl)amino)-1-oxo-2-isoindolinyl)glutaric acid]
Mouse antiumor (% I) (human tumor GC3TK; 3.2 mg/kg Compound A, folic acid 0 mg/kg, experiment with 50 mg/kg folic acid): 100 % I | Mouse antitumor (% I) (human tumor GC3TK; 3.2 mg/kg Compound A, folic acid 0 mg/kg, experiment with 500 mg/kg folic acid): 89 % I | Mouse antiumor (% I) (human tumor GC3TK; 3.2 mg/kg Compound A, folic acid 50 mg/kg): 100 % I | Mouse antitumor (% I) (human tumor GC3TK; 3.2 mg/kg Compound A, folic acid 500 mg/kg): 78 % I | Mouse antitumor (% I) (human tumor GC3TK; 3.2 mg/kg Compound A, leucovorin 0 mg/kg): 100 % I | Mouse antitumor (% I) (human tumor GC3TK; 3.2 mg/kg Compound A, leucovorin 200 mg/kg): 100 % I | inhibition of tumor growth (human tumor GC3TK; 3.2 mg/kg ip bolus for five days, no protectant): complete inhibition of tumor growth | Mouse antitumor (% I) (human tumor GC3TK; 10 mg/kg Compound A, folic acid 0 mg/kg, experiment with 50 mg/kg folic acid): >100 % I | Mouse antitumor (% I) (human tumor GC3TK; 10 mg/kg Compound A, folic acid 0 mg/kg, experiment with 500 mg/kg folic acid): >100 % I | Mouse antitumor (% I) (human tumor GC3TK; 10 mg/kg Compound A, folic acid 50 mg/kg): >100 % I | Mouse antitumor (% I) (human tumor GC3TK; 10 mg/kg Compound A, folic acid 500 mg/kg): >100 % I | Mouse antitumor (% I) (human tumor GC3TK; 10 mg/kg Compound A, leucovorin 0 mg/kg): >100 % I | Mouse antitumor (% I) (human tumor GC3TK; 10 mg/kg Compound A, leucovorin 200 mg/kg): >100 % I | inhibition of tumor growth (human tumor GC3TK; 10 mg/kg ip bolus for five days, no protectant): complete inhibition of tumor growth | inhibition of tumor growth (human tumor GC3TK; 50 mg/kg folic acid orally 30 minutes prior to the ip bolus dose of Compound A (3.2 or 10 mg/kg)): complete inhibition of tumor growth | inhibition of tumor growth (human tumor GC3TK; 200 mg/kg leucovorin orally 30 minutes prior to the ip bolus dose of Compound A (3.2 or 10 mg/kg)): complete inhibition of tumor growth | inhibition (human tumor GC3TK; another experiment, 3.2 mg/kg, absence of protectant): 89% | growth inhibition (human tumor GC3TK; another experiment, 10 mg/kg, absence of protectant): complete growth inhibition | tumor growth inhibition versus absence of folic acid (human tumor GC3TK; another experiment, 500 mg/kg folic acid orally 30 min prior to Compound A): not significantly different | lethality (beagle dogs; 8 mg/kg iv bolus for five consecutive days, alone): lethal | deaths (beagle dogs; 10 mg/kg iv 30 minutes after oral leucovorin (Wellcovorin) 10 mg/kg): no deaths occurred | deaths (beagle dogs; 10 mg/kg iv 30 minutes after oral leucovorin (Wellcovorin) 50 mg/kg): no deaths occurred | deaths (beagle dogs; 10 mg/kg iv 30 minutes after oral leucovorin (Wellcovorin) 100 mg/kg): no deaths occurred | deaths (beagle dogs; 10 mg/kg iv 30 minutes after oral leucovorin (Wellcovorin) 200 mg/kg): no deaths occurred | lethality (beagle dogs; 10 mg/kg iv, five consecutive days, given alone): lethal | lethality (beagle dogs; 20 mg/kg iv bolus 30 minutes after oral folic acid 50 mg/kg): not lethal
